Measurements published in patent US20160361445A1, “COMPOUND OR SALT THEREOF AND PHOTOACOUSTIC IMAGING CONTRAST AGENT CONTAINING COMPOUND OR SALT THEREOF” (CANON KABUSHIKI KAISHA, priority 2015, published 2016).

Assay: Photoacoustic characteristic evaluation (photoacoustic signal measurement)
Conditions: pulse laser 790 nm, 12 mJ/cm^2; contrast agent in distilled water
Protocol: Regarding the measurement of a photoacoustic signal, a sample was irradiated with pulse laser light, a photoacoustic signal from the sample was detected by using a piezoelectric element and was measured by a digital oscilloscope after being amplified by a high-speed preamplifier. Specific conditions were as described below. A titanium sapphire laser (produced by Lotis) was used as a light source. Regarding the conditions, the wavelength was 790 nm, the energy density was 12 mJ/cm^2, the pulse width was 20 nanoseconds, and the pulse repetition was 10 Hz. Model V303 (produced by Panametrics-NDT) was used as an ultrasonic transducer. Regarding the conditions, the center band was 1 MHz, the element size was φ0.5, the measurement distance was 25 mm (non-focus), and the amplification was +30 dB (ultrasonic preamplifier Model 5682 produced by Olympus Corporation). A measurement container was a polystyrene cuvette, the optical path length was 0.1 cm, and the sampling capacitor was about 200 μL. The measurement was performed by using DPO4104 (produced by Tektronix Corporation), where the conditions were as described below, trigger: photoacoustic light was detected by a photodiode data acquisition: average of 128 times (128 pulses)

CC1(C)C(/C=C/C=C/C=C/C=C2\N(CCCCS(=O)(=O)O)c3ccc4ccccc4c3C2(C)C)=[N+](CCCCS(=O)(=O)[O-])c2ccc3ccccc3c21 [Contrast agent (C-1), Indocyanine green]
Photoacoustic signal intensity ratio: 1.0
